pIC50, pKd: −log10 of the molar value. Read-outs that look alike come from different tables or passages of the source. Bounds are passed on as bounds.

The source of these data is US20240025906A1 (NEURON23, INC., priority 2022, published 2024).

Assay [1] deals with JAK1/TYK2 pSTAT5 (Tyr694/699) in THP-1 cell line. Description: IFNa-stimulated JAK1/TYK2 pSTAT5 (Tyr694/699) inhibition cellular assay, AlphaLISA. The assay is classed as cell-based. The settings on record: THP-1 cells, IFNa-stimulated, AlphaLISA (Assay B), read-out: Cellular_THP1_IFNa-pSTATS_TYK2. The gist of the method:
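The readout is AlphaLISA signal at 615 nm for phospho-STAT5 in THP-1 lysates after IFNa stimulation (added at 100 ng/mL, 30 min, 37 °C). Cells had compound for 1 h beforehand across eight 6-fold concentrations up to 10000 nM final. IC50s are 4PL fits with bottom and Hill slope constrained.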

The target of another assay is T1, TYK2 JH2 (Homo sapiens, UniProt P29597).
T1 construct: purchased DiscoverX (KINOMEscan KdELECT service); host or cells: E. coli BL21-derived (T7 phage display) or HEK-293
The assay can be described thus: TYK2 JH2 binding assay (KINOMEscan KdELECT competitive binding). The conditions noted are these: TYK2 JH2 domain, DiscoverX KINOMEscan KdELECT (Assay A); read-out: Biochemical TYK2_DiscoverX_JH2_BND_Kd. The gist of the method:
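The assay measures displacement of DNA- or phage-tagged TYK2 pseudokinase domain from an affinity resin; compound binding lowers the amount captured, read by qPCR. Incubation lasts 1 h at room temperature.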

T1 sequence (P29597 589-875 limits assumed): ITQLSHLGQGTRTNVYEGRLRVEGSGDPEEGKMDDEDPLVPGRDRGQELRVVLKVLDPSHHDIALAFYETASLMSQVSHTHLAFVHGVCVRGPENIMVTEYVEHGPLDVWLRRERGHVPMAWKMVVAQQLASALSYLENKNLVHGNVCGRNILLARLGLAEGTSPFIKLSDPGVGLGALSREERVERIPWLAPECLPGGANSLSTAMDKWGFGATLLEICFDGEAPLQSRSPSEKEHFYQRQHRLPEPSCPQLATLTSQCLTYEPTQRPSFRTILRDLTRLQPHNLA

In the case of `CNc1ncc(-c2nc3ccc(N4CCO[C@@H](C)C4)cn3n2)c2cc(Nc3ccccn3)ncc12` [Example 543, (S)—N^1-methyl-4-(6-(2-methylmorpholino)-[1,2,4]triazolo[1,5-a]pyridin-2-yl)-N^6-(pyridin-2-yl)-2,7-naphthyridine-1,6-diamine], the pIC50 in assay [1] (Homo sapiens) is no less than 6.30. In addition, the pKd on TYK2 JH2 was no less than 7.00.

In the case of `CNc1ncc(-c2nc3ccc(N4CCO[C@@H](C)C4)cn3n2)c2cc(Nc3cc(C)n(C)n3)ncc12` [Example 544, (S)—N^6-(1,5-dimethyl-1H-pyrazol-3-yl)-N^1-methyl-4-(6-(2-methylmorpholino)-[1,2,4]triazolo[1,5-a]pyridin-2-yl)-2,7-naphthyridine-1,6-diamine], the pIC50 in assay [1] (Homo sapiens) is no less than 6.30. For the same compound, the pKd on TYK2 JH2 is no less than 7.00.

On to `CNc1ncc(-c2nc3ccc(N4CCO[C@@H](C)C4)cn3n2)c2cc(Nc3ccn(C)n3)ncc12` [Example 545, (S)—N^1-methyl-N^6-(1-methyl-1H-pyrazol-3-yl)-4-(6-(2-methylmorpholino)-[1,2,4]triazolo[1,5-a]pyridin-2-yl)-2,7-naphthyridine-1,6-diamine], for which the pIC50 in assay [1] (Homo sapiens) was no less than 6.30. Moreover, the pKd at TYK2 JH2 was no less than 7.00.

On to `CNc1ncc(-c2nc3ccc(N4CCO[C@H](C)C4)cn3n2)c2cc(NC(=O)[C@@H]3C[C@@H]3C)ncc12` [Example 546, (1R,2S)-2-methyl 1N-(8-(methylamino)-5-(6-((R)-2-methylmorpholino)-[1,2,4]triazolo[1,5-a]pyridin-2-yl)-2,7-naphthyridin-3-yl)cyclopropane-1-carboxamide], for which the pIC50 in assay [1] (Homo sapiens) is no less than 6.30. In addition, the pKd at TYK2 JH2 is no less than 7.00.

Consider `CNc1ncc(-c2nc3ccc(N4CCO[C@H](C)C4)cn3n2)c2cc(NC(=O)[C@H]3C[C@H]3C)ncc12` [Example 547, (1S,2R)-2-methyl-N-(8-(methylamino)-5-(6-((R)-2-methylmorpholino)-[1,2,4]triazolo[1,5-a]pyridin-2-yl)-2,7-naphthyridin-3-yl)cyclopropane-1-carboxamide], for which the pIC50 in assay [1] (Homo sapiens) is no less than 6.30. Besides, the pKd at TYK2 JH2 was no less than 7.00.

Take `CNc1ncc(-c2nc3ccc(N4CCO[C@H](C)C4)cn3n2)c2cc(NC(=O)[C@H]3C[C@H]3F)ncc12` [Example 548, (1R,2R)-2-fluoro-N-(8-(methylamino)-5-(6-((R)-2-methylmorpholino)-[1,2,4]triazolo[1,5-a]pyridin-2-yl)-2,7-naphthyridin-3-yl)cyclopropane-1-carboxamide]: the pIC50 in assay [1] (Homo sapiens) is no less than 6.30. For the same compound, on TYK2 JH2, the pKd is no less than 7.00.

For the compound `CNc1ncc(-c2nc3ccc(N4CCO[C@H](C)C4)cn3n2)c2cc(NC(=O)[C@@H]3C[C@@H]3F)ncc12` [Example 549, (1S,2S)-2-fluoro-N-(8-(methylamino)-5-(6-((R)-2-methylmorpholino)-[1,2,4]triazolo[1,5-a]pyridin-2-yl)-2,7-naphthyridin-3-yl)cyclopropane-1-carboxamide], the pIC50 in assay [1] (Homo sapiens) was no less than 6.30. Also, on TYK2 JH2, the pKd was no less than 7.00.

As to `CNc1ncc(-c2nc3ccc(N4CCO[C@H](C)C4)cn3n2)c2cc(NC(=O)C3(F)CC3)ncc12` [Example 550, (R)-1-fluoro-N-(8-(methylamino)-5-(6-(2-methylmorpholino)-[1,2,4]triazolo[1,5-a]pyridin-2-yl)-2,7-naphthyridin-3-yl)cyclopropane-1-carboxamide], in assay [1] (Homo sapiens), the pIC50 was no less than 6.30. Also, the pKd on TYK2 JH2 was no less than 7.00.

Take `CNc1ncc(-c2nc3ccc(N4CCO[C@H](C)C4)cn3n2)c2cc(Nc3ccccn3)ncc12` [Example 551, (R)—N^1-methyl-4-(6-(2-methylmorpholino)-[1,2,4]triazolo[1,5-a]pyridin-2-yl)-N^6-(pyridin-2-yl)-2,7-naphthyridine-1,6-diamine]: the pIC50 in assay [1] (Homo sapiens) is no less than 6.30. At TYK2 JH2, the pKd was no less than 7.00.

As for `CNc1ncc(-c2nc3ccc(N4CCO[C@H](C)C4)cn3n2)c2cc(NC(=O)NC3CC3)ncc12` [Example 552, (R)-1-cyclopropyl-3-(8-(methylamino)-5-(6-(2-methylmorpholino)-[1,2,4]triazolo[1,5-a]pyridin-2-yl)-2,7-naphthyridin-3-yl)urea], the pIC50 in assay [1] (Homo sapiens) was no less than 6.30. Besides, the pKd on TYK2 JH2 is no less than 7.00.

On to `CNc1ncc(-c2nc3ccc(N4C[C@@H](C)O[C@@H](C)C4)cn3n2)c2cc(N)ncc12` [Example 553, 4-(6-((2R,6S)-2,6-dimethylmorpholino)-[1,2,4]triazolo[1,5-a]pyridin-2-yl)-N^1-methyl-2,7-naphthyridine-1,6-diamine], for which, in assay [1] (Homo sapiens), the pIC50 is less than 6.30. Moreover, the pKd at TYK2 JH2 was no less than 7.00.

As for `CNc1ncc(-c2nc3ccc(N4C[C@@H](C)O[C@@H](C)C4)cn3n2)c2cc(NC(=O)[C@@H]3C[C@@H]3F)ncc12` [Example 554, (1S,2S)—N-(5-(6-((2R,6S)-2,6-dimethylmorpholino)-[1,2,4]triazolo[1,5-a]pyridin-2-yl)-8-(methylamino)-2,7-naphthyridin-3-yl)-2-fluoracyclopropane-1-carboxamide], the pIC50 in assay [1] is no less than 6.30. Further, on TYK2 JH2, the pKd is no less than 7.00.

As for `CNc1ncc(-c2nc3ccc(N4C[C@@H](C)O[C@@H](C)C4)cn3n2)c2cc(NC(=O)[C@H]3C[C@H]3C)ncc12` [Example 555, (1S,2R)-N-(5-(6-((2R,6S)-2,6-dimethylmorpholino)-[1,2,4]triazolo[1,5-a]pyridin-2-yl)-8-(methylamino)-2,7-naphthyridin-3-yl)-2-methylcyclopropane-1-carboxamide], the pIC50 in assay [1] (Homo sapiens) is no less than 6.30. In addition, the pKd at TYK2 JH2 is no less than 7.00.

Regarding `CNc1ncc(-c2nc3ccc(N4C[C@@H](C)O[C@@H](C)C4)cn3n2)c2cc(NC(=O)CC(F)(F)F)ncc12` [Example 556, N-(5-(6-((2R,6S)-2,6-dimethylmorpholino)-[1,2,4]triazolo[1,5-a]pyridin-2-yl)-8-(methylamino)-2,7-naphthyridin-3-yl)-3,3,3-trifluoropropanamide], the pIC50 in assay [1] (Homo sapiens) is no less than 6.30. Further, the pKd at TYK2 JH2 is no less than 7.00.

For the compound `CNc1ncc(-c2nc3ccccn3n2)c2cc(Nc3ccccn3)ncc12` [Example 557, 4-([1,2,4]triazolo[1,5-a]pyridin-2-yl)-N^1-methyl-N^6-(pyridin-2-yl)-2,7-naphthyridine-1,6-diamine], the pIC50 in assay [1] (Homo sapiens) is no less than 6.30. Besides, the pKd at TYK2 JH2 was no less than 7.00.

For `CNc1ncc(-c2nc3ccc(N4CCC(F)(F)CC4)cn3n2)c2cc(NC(=O)[C@H]3C[C@H]3C)ncc12` [Example 558, (1S,2R)—N-(5-(6-(4,4-difluoropiperidin-1-yl)-[1,2,4]triazolo[1,5-a]pyridin-2-yl)-8-(methylamino)-2,7-naphthyridin-3-yl)-2-methylcyclopropane-1-carboxamide], the pIC50 in assay [1] (Homo sapiens) was no less than 6.30. Also, the pKd on TYK2 JH2 was no less than 7.00.

With `CNc1ncc(-c2nc3ccc(N4CC5CN(C)CC(C4)O5)cn3n2)c2cc(NC(=O)C3(F)CC3)ncc12` [Example 559, 1-fluoro-N-(5-(6-(7-methyl-9-oxa-3,7-diazabicyclo[3.3.1]nonan-3-yl)-[1,2,4]triazolo[1,5-a]pyridin-2-yl)-8-(methylamino)-2,7-naphthyridin-3-yl)cyclopropane-1-carboxamide], in assay [1] (Homo sapiens), the pIC50 was no less than 6.30. In addition, the pKd at TYK2 JH2 is no less than 7.00.

`CNc1ncc(-c2nc3ccc(N4CC5CN(C)CC(C4)O5)cn3n2)c2cc(NC(=O)[C@H]3C[C@H]3C)ncc12` [Example 560, (1S,2R)-2-methyl-N-(5-(6-(7-methyl-9-oxa-3,7-diazabicyclo[3.3.1]nonan-3-yl)-[1,2,4]triazolo[1,5-a]pyridin-2-yl)-8-(methylamino)-2,7-naphthyridin-3-yl)cyclopropane-1-carboxamide]: in assay [1] (Homo sapiens), the pIC50 is no less than 6.30. Moreover, at TYK2 JH2, the pKd is no less than 7.00.

Regarding `CNc1ncc(-c2nc3ccc(C)cn3n2)c2cc(NC(=O)C3CCC3)ncc12` [Example 561, N-(5-(6-methyl-[1,2,4]triazolo[1,5-a]pyridin-2-yl)-8-(methylamino)-2,7-naphthyridin-3-yl)cyclobutanecarboxamide], in assay [1] (Homo sapiens), the pIC50 was no less than 6.30. For the same compound, the pKd on TYK2 JH2 was no less than 7.00.

With `CNc1ncc(-c2nc3ccc(C)cn3n2)c2cc(NC(=O)[C@H]3C[C@H]3C)ncc12` [Example 562, (1S,2R)-2-methyl-N-(5-(6-methyl-[1,2,4]triazolo[1,5-a]pyridin-2-yl)-8-(methylamino)-2,7-naphthyridin-3-yl)cyclopropane-1-carboxamide], the pIC50 in assay [1] (Homo sapiens) was no less than 6.30. Also, the pKd at TYK2 JH2 is no less than 7.00.

As for `CNc1ncc(-c2nc3ccc(N4C[C@H]5C[C@@H]4CO5)cn3n2)c2cc(NC(=O)C3(F)CC3)ncc12` [Example 563, N-(5-(6-((1R,4R)-2-oxa-5-azabicyclo[2.2.1]heptan-5-yl)-[1,2,4]triazolo[1,5-a]pyridin-2-yl)-8-(methylamino)-2,7-naphthyridin-3-yl)-1-fluorocyclopropane-1-carboxamide], the pIC50 in assay [1] (Homo sapiens) was no less than 6.30. The pKd on TYK2 JH2 is no less than 7.00.

In the case of `[2H]C([2H])([2H])Nc1ncc(-c2nc3ccccn3n2)c2cc(NC(=O)[C@H]3C[C@H]3F)ncc12` [Example 566, (1R,2R)—N-(5-([1,2,4]triazolo[1,5-a]pyridin-2-yl)-8-((methyl-d3)amino)-2,7-naphthyridin-3-yl)-2-fluorocyclopropane-1-carboxamide], in assay [1] (Homo sapiens), the pIC50 was no less than 6.30. The pKd on TYK2 JH2 was no less than 7.00.
